Read-outs that look alike come from different tables or passages of the source. Where no end group is shown, it is not given here.

Data set [1] relates to tested bacteria and fungi. It counts as cell-based. Particulars: for bacteria; serine-phosphorylated peptides. As to the method:
(§1) The antimicrobial activities of HBc ARD peptides were tested on numerous bacterial strains from ATCC, including Pseudomonas aeruginosa Migula strain (ATCC 27853, ampicillin-resistant), Pseudomonas aeruginosa Migula strain (ATCC 9027, ampicillin-resistant), Klebsiella pneumoniae strain (ATCC 17593), Escherichia coli strain (ATCC 25922), Staphylococcus aureus subsp. strain (ATCC 25923, methicillin-resistant), Staphylococcus aureus subsp. strain (ATCC29213, methicillin-resistant), Staphylococcus aureus subsp. strain (ATCC 19636, methicillinresistant), and Candida albicans strain (ATCC 10231).
(§2) All peptides were purchased from Yao-Hong Biotechnology Inc. (Taipei, Taiwan). Vendors provided data of peptide characterizations, including HPLC and Mass. Antimicrobial activity was determined as described with some modifications as detailed below. Bacteria were grown overnight in Mueller-Hinton broth (Difeo) at 37° C., and during the mid-logarithmic phase, bacteria were diluted to 10^6 CFU (colony formation unit)/ml in phosphate buffer (10 mM sodium phosphate and 50 mM sodium chloride, pH 7.2). Peptides were serially diluted in the same buffer. Fifty microliter (μl) of bacteria was mixed with fifty μl of peptides at varying concentrations followed by incubation at 37° C. for 3 hours without shaking. […]

The test system of data set [2] is Huh7, HepG2, Vero and HEK293 cells. Nature of the data set: Cytotoxicity, MTT assay. Particulars: for effect on cell viability: 0 to 100 μM, 1 hour at 37° C. Type of data set: cell-based, human, monkey. As to the method:
(§3) (A) Hemolytic activities of HBc147-183 and melittin were measured with 10% human red blood cells (RBC). […] (B) Huh7, HepG2, Vero and HEK293 cells were incubated with varying concentrations (0 to 100 μM) of HBc147-183 and melittin for 1 hour at 37° C. The effects on cell viability were determined by MTT assay. Melittin was used as a positive control. […] (C) Kidney cells, Vero and HEK293 were stained with CFSE and seeded at day 0. At day 1, cells were incubated with varying concentrations (0 to 100 μM) of HBc147-183 for 1 hour. Cell proliferation at day 1 and day 3 were determined by flow cytometry. […] Samples assayed in FIGS. 7A-C were measured in triplicates. (D) (D) In vivo toxicity of ARD peptide HBc147-183 was determined using three-week old male ICR mice. The mice were injected intraperitoneally with peptide (10 and 20 mg/kg of body weight).
Cytotoxicity was measured in HepG2, Huh7, HEK293, and Vero cells by MTT assay. Cells were seeded at 10^4 cells/well in a 96-well plate and serial dilutions of peptides were added into each well. PBS was used as a negative control and melittin was used as a positive control. After 1 hour of incubation, the medium were replaced by a fresh medium containing 10% MTT solution (PROMEGA™), and the plate was incubated for 4 hours in 5% CO2 at 37° C., The absorbance at the wavelength a 595 nm was measured by an ELISA reader (BIO-RAD™ model 680).
(In general: Formazan colour is commonly taken as a measure of viable cells.)

The next data set concerns S. aureus. Type of data set: cell-based, Staphylococcus aureus. Particulars: for Minimal bactericidal concentration: S. aureus ATCC 19636. As to the method: as §1
(§4) All peptides were purchased from Yao-Hong Biotechnology Inc. (Taipei, Taiwan). Vendors provided data of peptide characterizations, including HPLC and Mass. Antimicrobial activity was determined as described with some modifications as detailed below. Bacteria were grown overnight in Mueller-Hinton broth (Difeo) at 37° C., and during the mid-logarithmic phase, bacteria were diluted to 10^6 CFU (colony formation unit)/ml in phosphate buffer (10 mM sodium phosphate and 50 mM sodium chloride, pH 7.2). Peptides were serially diluted in the same buffer. Fifty microliter (μl) of bacteria was mixed with fifty μl of peptides at varying concentrations followed by incubation at 37° C. for 3 hours without shaking. At the end of incubation, bacteria were placed on Mueller-Hinton broth agar plates, and allowed growth at 37° C. overnight for measurement of minimal bactericidal concentration (MBC). […] All peptides were tested in triplicate.

The test system of the next data set is K. pneumoniae. It counts as cell-based, Klebsiella pneumoniae. Particulars: for Minimal bactericidal concentration: K. pneumoniae ATCC 13884. As for the experimental part: as §1, §4
For a further data set, the system named is E. coli. Type of data set: cell-based, Escherichia coli. Particulars: for Minimal bactericidal concentration: E. coli ATCC 25922. As to the method:
as §1, §4

For another data set, the system named is P. aeruginosa. Type of data set: cell-based, Pseudomonas aeruginosa. As for the experimental part: as §1
(§5) Clinical isolates of Pseudomonas aeruginosa (NHRI-01, NHRI-02 AND NHRI-04) were obtained through the program of Taiwan Surveillance of Antimicrobial Resistance, National Health Research Institutes, Taiwan, Acinetobacter baumannii (ATCC 17989, ATCC 17978 CR, ATCC19606, ATCC 19606 CR, TCGH 45530 AND TCGH 46709) were obtained from Tzu-Chi Buddhist General Hospital in Taiwan, and clinical isolates (TCGH 1 45530 AND TCGH 46709) were identified using the Vitek system (Biomerieux Vitek, Inc., MO, USA). A. baumannii is defined as multidrug-resistant when the organism is resistant to piperacillin, piperacillin-tazobactam, ampicillin/sulbactam, imipenem, ceftazidime, gentamicin, amikacin, tetracycline, chloramphenicol, ciprofloxacin, and cotrimoxazole. Susceptibility to colistin was determined using the broth-dilution method, in accordance with the guidelines of the Clinical and Laboratory Standards Institute.
All peptides were purchased from Yao-Hong Biotechnology Inc. (Taipei, Taiwan). Vendors provided data of peptide characterizations, including HPLC and Mass. Antimicrobial activity was determined as described with some modifications as detailed below. Bacteria were grown overnight in Mueller-Hinton broth (Difeo) at 37° C., and during the mid-logarithmic phase, bacteria were diluted to 10^6 CFU (colony formation unit)/ml in phosphate buffer (10 mM sodium phosphate and 50 mM sodium chloride, pH 7.2). Peptides were serially diluted in the same buffer. […]

For the next data set, the system named is A. baumannii. Type of data set: cell-based, Acinetobacter baumannii.
Description: as §5
All peptides were purchased from Yao-Hong Biotechnology Inc. (Taipei, Taiwan). Vendors provided data of peptide characterizations, including HPLC and Mass. Antimicrobial activity was determined as described with some modifications as detailed below. […]

A further data set concerns ICR mice. The data set can be described thus: In vivo acute toxicity. As for the experimental part:
as §3
Three-week old male ICR mice (19 to 21 g) were purchased from BioLASCO (Taiwan) Overnight culture of bacteria in BHI broth (Difco) was subcultured in fresh BRI broth to log phase. Inoculums were diluted in BHI broth to indicated densities. To test the acute toxicity of ARD peptide in vivo, ICR male mice were inoculated intraperitoncally (i.p.) with 10 and 20 mg/kg HBc147-183 in PBS, respectively. […] After peptide injection, the number of dead mice was recorded daily for 7 days post-injection. […] Mortality was monitored daily for 7 days post-inoculation. […]

Another data set concerns human red blood cells. The data set can be described thus: Hemolytic activity. Type of data set: cell-based. Particulars: 10% hRBCs, one hour of incubation. As to the method:
as §3
The hemolytic activities of peptides were determined by hemolysis against human red blood cells (hRBCs). Human blood was obtained in EDTA-containing tube and was centrifuged at 450 g for 10 min. […] After centrifugation at 450 g for 10 min, the percentage of hemolysis was determined by measuring the absorbance at the wavelength of 405 nm of the supernatant. Blank and 100% hemolysis were determined in PBS buffer and in the presence of 1% Triton X-100, respectively.

A further data set deals with C. albicans. It counts as cell-based, Candida albicans. As to the method: as §1, §2
Another data set relates to Vero and HEK293 cells. The data set can be described thus: CFSE cell proliferation assay. Particulars: 5, 25 and 100 μM for 1 hour, day 3 vs day 1. It counts as cell-based, human, monkey. As for the experimental part: as §3
To set up CFSE cell proliferation assay, 293 cells (human kidney origin) and Vero cells (monkey kidney origin) were resuspended in PBS to a final concentration of 10^6 cells/ml before incubation with 10 μM CFSE dye (CELLTRACE™ CFSE cell proliferation kit, INVITROGEN™) at 37° C. for 10 min. To quench the staining, ice-old culture media were then added and incubated on ice for 5 min. […] Forty-eight hours later, cells were harvested and analyzed by flow cytometry (FACSCanto, BD Bioscience).

For `CC(C)[C@H](NC(=O)[C@@H](NC(=O)[C@@H](N)[C@@H](C)O)C(C)C)C(=O)N[C@@H](CCCNC(=N)N)C(=O)N[C@@H](CCCNC(=N)N)C(=O)N[C@@H](CCCNC(=N)N)C(=O)NCC(=O)N[C@@H](CCCNC(=N)N)C(=O)N[C@@H](COP(=O)(O)O)C(=O)N1CCC[C@H]1C(=O)N[C@@H](CCCNC(=N)N)C(=O)N[C@@H](CCCNC(=N)N)C(=O)N[C@@H](CCCNC(=N)N)C(=O)N[C@H](C(=O)N1CCC[C@H]1C(=O)N[C@@H](COP(=O)(O)O)C(=O)N1CCC[C@H]1C(=O)N[C@@H](CCCNC(=N)N)C(=O)N[C@@H](CCCNC(=N)N)C(=O)N[C@@H](CCCNC(=N)N)C(=O)N[C@@H](CCCNC(=N)N)C(=O)N[C@@H](CO)C(=O)N[C@@H](CCC(N)=O)C(=O)N[C@@H](COP(=O)(O)O)C(=O)N1CCC[C@H]1C(=O)N[C@@H](CCCNC(=N)N)C(=O)N[C@@H](CCCNC(=N)N)C(=O)N[C@@H](CCCNC(=N)N)C(=O)N[C@@H](CCCNC(=N)N)C(=O)N[C@@H](CO)C(=O)N[C@@H](CCC(N)=O)C(=O)N[C@@H](CO)C(=O)N[C@@H](CCCNC(=N)N)C(=O)N[C@@H](CCC(=O)O)C(=O)N[C@@H](CO)C(=O)N[C@@H](CCC(N)=O)C(=O)N[C@@H](CS)C(=O)O)[C@@H](C)O` [HBc155p162p170p], the MBC in data set [1] was over 32 µM.
For the compound `CC[C@H](C)[C@H](NC(=O)CN)C(=O)NCC(=O)N[C@@H](C)C(=O)N[C@H](C(=O)N[C@@H](CC(C)C)C(=O)N[C@@H](CCCCN)C(=O)N[C@H](C(=O)N[C@@H](CC(C)C)C(=O)N[C@H](C(=O)N[C@H](C(=O)NCC(=O)N[C@@H](CC(C)C)C(=O)N1CCC[C@H]1C(=O)N[C@@H](C)C(=O)N[C@@H](CC(C)C)C(=O)N[C@H](C(=O)N[C@@H](CO)C(=O)N[C@@H](Cc1c[nH]c2ccccc12)C(=O)N[C@H](C(=O)N[C@@H](CCCCN)C(=O)N[C@@H](CCCNC(=N)N)C(=O)N[C@@H](CCCCN)C(=O)N[C@@H](CCCNC(=N)N)C(=O)N[C@@H](CCC(N)=O)C(=O)N[C@@H](CCC(N)=O)C(N)=O)[C@@H](C)CC)[C@@H](C)CC)[C@@H](C)O)[C@@H](C)O)C(C)C)C(C)C` [melittin, reference compound], the “effect on cell viability” value in data set [2] is reported as “strong toxicity”. For the same compound, the viability of cells result in [2] (low dose (3.125 μM), 1 hour) is given as “significantly decreased”.
“TVIRRRGGARASRSPRRRTPSPRRRRSQSPRRRRSQSPSANC [wHBc ARD]”: the Minimal bactericidal concentration in the data set with S. aureus was 8 µM; in the data set with K. pneumoniae, 2 µM; in the data set on E. coli, 4 µM; with P. aeruginosa (P. aeruginosa ATCC 9027), 2 µM; in the data set with P. aeruginosa (P. aeruginosa ATCC 27853), 2 µM.
“TVVRRRGRSPRRRTPSPRRRRSQSPRRRRSQSRESQC [HBc147-183]”: the Minimal bactericidal concentration with S. aureus was 4 µM; with K. pneumoniae, 2 µM; in the data set on E. coli it was 4 µM. Also, the MBC entry in the data set with S. aureus (S. aureus, strain not given) is “around 4 μM”; with A. baumannii, 0.5 to 1 µM; in the data set with A. baumannii (colistin-resistant A. baumannii) it was 0.5 to 1 µM; against K. pneumoniae (K. pneumonia, strain not given), “lower than 4 μM”; with E. coli (E. coli, strain not given) it was “around 4 μM”; with P. aeruginosa (colistin-resistant P. aeruginosa), over 16 µM. The MBC in the data set on C. albicans was about 8 µM. In addition, the “effect on cell viability” value in data set [2] is “no detectable effect”. The cytotoxicity entry in data set [2] (100 μM, 1 hour) is reported as “only a low level of cytotoxicity”. For the same compound, in the data set on ICR mice (20 mg/kg i.p.), the in vivo toxicity result was “no apparent in vivo toxicity”. In addition, in the data set with ICR mice (10 and 20 mg/kg intraperitoneally, 7 days), the “survival after peptide injection” value is “All mice were alive”. In addition, the hemolysis entry in the data set with human red blood cells is “no detectable hemolysis”. The “effect on cell proliferation” value with Vero and HEK293 cells was “no significant effect”.

These data come from US10214564B2, “Antimicrobial peptides derived from hepatitis B virus core protein arginine-rich domain” (priority 2013, dated 2019).
